Consider nine compounds from ChEMBL document CHEMBL1201862, “PubChem BioAssay data set” (2004).

The GI50 is the concentration that inhibits growth by half.

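Dose response: 5 concentrations. Exposure: 48 h. Format: 96-well plates. Endpoint: linear interpolation; highest concentration if not reached. At the GI50, growth is halved.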 Activity calls are given as the source filed them. No stated cut-off is given here; in the data, active = GI50 up to about 1.1 µM and inactive = higher.

What all share (test): DTP human tumour cell line panel, 48 h
Test [1] has as its system CAKI-1.
Test [2] deals with COLO 205.
The test system of test [3] is HT-29.
Test [4] has as its system IGROV-1.
Test [5] relates to K562.
Test [6] concerns KM12.
Test [7] relates to M14.
Test [8] relates to MDA-MB-435.
For test [9], the system named is MOLT-4.
Test [10] relates to PC-3.
Test [11] relates to SF-268.
Test [12] concerns SK-MEL-2.
The test system of test [13] is SK-MEL-5.
For test [14], the system named is SK-OV-3.
In test [15] the test system is SW-620.
In test [16] the test system is TK-10.
Test [17] deals with U-251.
The subject of test [18] is RPMI-8226.

As to `C=C(C)C1CC2(C)C(C)CC(OC(=O)/C(C)=C\C)CC2C(OC(=O)/C(C)=C\C)C1O` (stereo unspecified), the GI50 was 80.7 µM (inactive) in test [1]; 22.1 µM (inactive) in test [2]; 35.8 µM (inactive) in test [3]; 66.2 µM (inactive) in [4]; > 10 µM (inactive) in [5]; 38.6 µM (inactive) in test [6]. In addition, the GI50 in [7] is > 100 µM (inactive); in [8], 55.3 µM (inactive); in test [9], 25.1 µM (inactive); in [10] it was 46.6 µM (inactive); in test [11], 66.4 µM (inactive); in [12], > 100 µM (inactive). For the same compound, the GI50 in test [13] is 15.6 µM (inactive); in [14], > 100 µM (inactive); in test [15], 61 µM (inactive); in [16] it was > 100 µM (inactive); in test [17] it was 75.5 µM (inactive).

With `O=C(O)c1ccc2c(c1)Cc1cc([N+](=O)[O-])ccc1-2`, the GI50 was 71.4 µM (inactive) in test [1]; > 100 µM (inactive) in test [2]; > 100 µM (inactive) in [3]; > 100 µM (inactive) in [4]; 73.5 µM (inactive) in [5]; > 100 µM (inactive) in [6]. Moreover, the GI50 in test [7] was > 100 µM (inactive); in test [8], > 100 µM (inactive); in test [9], > 100 µM (inactive); in [18] it was 0.546 µM (active); in test [11], > 100 µM (inactive); in test [12] it was > 100 µM (inactive). The GI50 was > 100 µM (inactive) in test [13]; > 100 µM (inactive) in [14]; > 100 µM (inactive) in [15]; 61 µM (inactive) in test [16]; > 100 µM (inactive) in test [17].

`COc1ccc(/N=N/C(C(=O)c2ccccc2)C(=O)c2ccccc2)cc1`: the GI50 in [1] was 32.5 µM (inactive); in [2] it was 42.1 µM (inactive); in test [3] it was 23 µM (inactive); in test [4], 34.7 µM (inactive); in test [5], 19.1 µM (inactive); in test [6] it was 27 µM (inactive). Moreover, the GI50 in test [7] is 15.3 µM (inactive); in test [9] it was 14.7 µM (inactive); in [18], 13.4 µM (inactive); in test [11], 23.8 µM (inactive); in test [12] it was 21.9 µM (inactive); in test [13], 14.1 µM (inactive). Further, the GI50 in [14] was 45.9 µM (inactive); in test [15], 19.3 µM (inactive); in [16], 52 µM (inactive); in test [17] it was 15.7 µM (inactive).

Regarding `CC(C)(C)OC/C=C(/CO)[C@@H]1C=C[C@H](O)C1`, the GI50 in test [1], in test [2], in test [3], in test [5], in test [6] and in test [7] was > 100 µM (inactive) in each case. Moreover, the GI50 in test [8], in test [9], in test [10], in [18], in test [11] and in [12] was > 100 µM (inactive) each time. Also, the GI50 in [14], in [15] and in test [17] was > 100 µM (inactive) each time.

For `COc1ccc2cc1Oc1ccc(cc1)CC1c3cc(OC)c(cc3CCN1C)Oc1c(OC)c(OC)cc3c1C(C2)N(C)CC3` (stereo unspecified), the GI50 in [1] is 11.2 µM (inactive); in [2], 2.49 µM (inactive); in test [3] it was 8.79 µM (inactive); in [4], 18.8 µM (inactive); in test [5], 7.94 µM (inactive); in test [6], 12.7 µM (inactive). The GI50 in [7] was 4.91 µM (inactive); in [8] it was 12 µM (inactive); in test [9], 10.4 µM (inactive); in [10] it was 11.9 µM (inactive); in [11], 12.9 µM (inactive); in [12], 12.8 µM (inactive). Further, the GI50 in test [13] is 6.79 µM (inactive); in test [14] it was 29.4 µM (inactive); in test [15], 26.2 µM (inactive); in test [16], 10.8 µM (inactive); in test [17], 10.2 µM (inactive).

In the case of `COc1cc(S(=O)(=O)Nc2ccc(-c3csc(N4C(=O)C(C)SC4c4ccccc4O)n3)cc2)ccc1Cl` (stereo unspecified), the GI50 was 85.9 µM (inactive) in test [1]; 25.2 µM (inactive) in test [2]; 56.9 µM (inactive) in test [3]; 35.8 µM (inactive) in test [4]; 32.8 µM (inactive) in test [5]; 29.7 µM (inactive) in test [6]. The GI50 in [7] is 40.2 µM (inactive); in [8] it was 37.8 µM (inactive); in test [9] it was 27.1 µM (inactive); in [10], 29.9 µM (inactive); in test [18] it was 32.1 µM (inactive); in test [11] it was 21.3 µM (inactive). The GI50 was 42 µM (inactive) in test [12], 32.1 µM (inactive) in test [13], > 100 µM (inactive) in test [14] and 34.8 µM (inactive) in test [15].

Take `CCN(CC)COC(=S)S`: the GI50 is > 67 µM (inactive) in [1]; 78 µM (inactive) in test [2]; 39 µM (inactive) in [3]; 89.7 µM (inactive) in test [4]; 38 µM (inactive) in [5]; > 76.2 µM (inactive) in test [6]. Also, the GI50 was 44.1 µM (inactive) in test [7]; 38.3 µM (inactive) in [8]; 22.3 µM (inactive) in test [9]; 33.3 µM (inactive) in test [10]; > 78 µM (inactive) in [11]; 1.82 µM (inactive) in test [12]. Also, the GI50 was 21.6 µM (inactive) in test [13]; > 100 µM (inactive) in test [14]; 24.2 µM (inactive) in test [15]; > 54 µM (inactive) in test [16]; 30.3 µM (inactive) in test [17].

In the case of `CC1C(c2ccccc2)O[B-](F)(c2ccccc2)[NH+]1C` (stereo unspecified), the GI50 in test [2], in [3], in test [4], in [5], in test [7] and in test [8] was > 100 µM (inactive) in each case. Further, the GI50 in [9], in test [10], in test [18], in [11], in [13] and in test [14] was > 100 µM (inactive) in each case. The GI50 in [15], in test [16] and in test [17] was > 100 µM (inactive) in each case.

For `O=C1Cc2c([nH]c3ccc(Br)cc23)-c2cc(Br)ccc2N1`, the GI50 in [1], in [2], in test [5], in test [6], in test [7] and in test [8] was > 100 µM (inactive) throughout. For the same compound, the GI50 in test [9] was 86.3 µM (inactive); in [10] it was > 100 µM (inactive); in test [18] it was > 100 µM (inactive); in [11], > 100 µM (inactive); in test [12], > 100 µM (inactive); in test [13], > 100 µM (inactive). Further, the GI50 in test [14], in test [15], in test [16] and in [17] was > 100 µM (inactive) in each case.
